This note sets out measurements from the supplement of paper PMC10307832.

Common to all, as to experiment: relative viability (nuclei count vs DMSO), 5 days (fraction); higher = more cells survive
Compound in the assay “Tipifarnib + Tozasertib”: Cn1cncc1[C@@](N)(c1ccc(Cl)cc1)c1ccc2c(c1)c(-c1cccc(Cl)c1)cc(=O)n2C [Tipifarnib] + Cc1cc(Nc2cc(N3CCN(C)CC3)nc(Sc3ccc(NC(=O)C4CC4)cc3)n2)n[nH]1 [Tozasertib] (partner 0.1 µM)
The gist of the method: (§1)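 Values are medians from duplicate plates. Each reflects relative viability, defined as the nuclei count of treated wells over that of vehicle wells. Lung cancer cell lines in 1536-well plates were pin-tool dosed one day after seeding with one drug alone or with a fixed anchor-drug dose plus five library-drug doses (not always all listed) in √10 steps, then fixed, stained and imaged at 4× after 5 days.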

Compound in the assay “Tipifarnib + OSI-027”: Cn1cncc1[C@@](N)(c1ccc(Cl)cc1)c1ccc2c(c1)c(-c1cccc(Cl)c1)cc(=O)n2C [Tipifarnib] + COc1cccc2cc(-c3nc([C@H]4CC[C@H](C(=O)O)CC4)n4ncnc(N)c34)[nH]c12 [OSI-027] (partner 0.5 µM)
The gist of the method:
as §1

Compound in the assay “Tipifarnib + Linsitinib”: Cn1cncc1[C@@](N)(c1ccc(Cl)cc1)c1ccc2c(c1)c(-c1cccc(Cl)c1)cc(=O)n2C [Tipifarnib] + C[C@]1(O)C[C@@H](c2nc(-c3ccc4ccc(-c5ccccc5)nc4c3)c3c(N)nccn32)C1 [Linsitinib] (partner 1 µM)
The procedure, abridged:
as §1

Compound in the assay “Tipifarnib + Crizotinib”: Cn1cncc1[C@@](N)(c1ccc(Cl)cc1)c1ccc2c(c1)c(-c1cccc(Cl)c1)cc(=O)n2C [Tipifarnib] + C[C@@H](Oc1cc(-c2cnn(C3CCNCC3)c2)cnc1N)c1c(Cl)ccc(F)c1Cl [Crizotinib] (partner 1 µM)
The gist of the method:
as §1

NCI-H661: the relative viability turned out to be 0.355 with Tipifarnib + Tozasertib (first compound 0.01 µM); 0.347 with Tipifarnib + Tozasertib (first compound 0.03162 µM); 0.337 in the assay with Tipifarnib + Tozasertib (first compound 0.1 µM); 0.34 in the assay with Tipifarnib + Tozasertib (first compound 0.3162 µM); 0.347 in the assay with Tipifarnib + Tozasertib (first compound 1 µM); 0.696 with Tipifarnib + OSI-027 (first compound 0.01 µM). The relative viability with Tipifarnib + OSI-027 (first compound 0.03162 µM) is 0.601; in the assay with Tipifarnib + OSI-027 (first compound 0.1 µM), 0.439; with Tipifarnib + OSI-027 (first compound 0.3162 µM) it was 0.33; in the assay with Tipifarnib + OSI-027 (first compound 1 µM), 0.339; with Tipifarnib + Linsitinib (first compound 0.01 µM) it was 0.754; in the assay with Tipifarnib + Linsitinib (first compound 0.03162 µM), 0.616. The relative viability in the assay with Tipifarnib + Linsitinib (first compound 0.1 µM) came out at 0.502; in the assay with Tipifarnib + Linsitinib (first compound 0.3162 µM), 0.511; in the assay with Tipifarnib + Linsitinib (first compound 1 µM) it was 0.438; with Tipifarnib + Crizotinib (first compound 0.01 µM) it was 1.02; in the assay with Tipifarnib + Crizotinib (first compound 0.03162 µM) it was 0.935; with Tipifarnib + Crizotinib (first compound 0.1 µM), 0.785. Further, the relative viability was 0.837 in the assay with Tipifarnib + Crizotinib (first compound 0.3162 µM) and 0.786 with Tipifarnib + Crizotinib (first compound 1 µM).
As for NCI-H650, the relative viability in the assay with Tipifarnib + Tozasertib (first compound 0.01 µM) was found to be 0.791; in the assay with Tipifarnib + Tozasertib (first compound 0.03162 µM), 0.612; in the assay with Tipifarnib + Tozasertib (first compound 0.1 µM), 0.498; in the assay with Tipifarnib + Tozasertib (first compound 0.3162 µM) it was 0.576; with Tipifarnib + Tozasertib (first compound 1 µM), 0.379; with Tipifarnib + OSI-027 (first compound 0.01 µM) it was 0.486. The relative viability is 0.375 with Tipifarnib + OSI-027 (first compound 0.03162 µM); 0.297 in the assay with Tipifarnib + OSI-027 (first compound 0.1 µM); 0.305 with Tipifarnib + OSI-027 (first compound 0.3162 µM); 0.266 in the assay with Tipifarnib + OSI-027 (first compound 1 µM); 0.825 with Tipifarnib + Linsitinib (first compound 0.01 µM); 0.706 in the assay with Tipifarnib + Linsitinib (first compound 0.03162 µM). The relative viability with Tipifarnib + Linsitinib (first compound 0.1 µM) was found to be 0.662; in the assay with Tipifarnib + Linsitinib (first compound 0.3162 µM) it was 0.526; in the assay with Tipifarnib + Linsitinib (first compound 1 µM) it was 0.348; in the assay with Tipifarnib + Crizotinib (first compound 0.01 µM), 0.773; in the assay with Tipifarnib + Crizotinib (first compound 0.03162 µM), 0.679; with Tipifarnib + Crizotinib (first compound 0.1 µM), 0.442. Further, the relative viability turned out to be 0.437 with Tipifarnib + Crizotinib (first compound 0.3162 µM) and 0.345 in the assay with Tipifarnib + Crizotinib (first compound 1 µM).
For NCI-H647, the relative viability with Tipifarnib + Tozasertib (first compound 0.01 µM) was 0.21; with Tipifarnib + Tozasertib (first compound 0.03162 µM) it was 0.126; with Tipifarnib + Tozasertib (first compound 0.1 µM) it was 0.178; in the assay with Tipifarnib + Tozasertib (first compound 0.3162 µM), 0.101; with Tipifarnib + Tozasertib (first compound 1 µM), 0.14; with Tipifarnib + OSI-027 (first compound 0.01 µM), 0.409. Further, the relative viability with Tipifarnib + OSI-027 (first compound 0.03162 µM) amounted to 0.585; with Tipifarnib + OSI-027 (first compound 0.1 µM) it was 0.438; with Tipifarnib + OSI-027 (first compound 0.3162 µM), 0.299; with Tipifarnib + OSI-027 (first compound 1 µM), 0.101; with Tipifarnib + Linsitinib (first compound 0.01 µM) it was 1.35; with Tipifarnib + Linsitinib (first compound 0.03162 µM), 1.04. Moreover, the relative viability came to 0.649 in the assay with Tipifarnib + Linsitinib (first compound 0.1 µM); 0.557 in the assay with Tipifarnib + Linsitinib (first compound 0.3162 µM); 0.609 with Tipifarnib + Linsitinib (first compound 1 µM); 0.76 with Tipifarnib + Crizotinib (first compound 0.01 µM); 0.618 with Tipifarnib + Crizotinib (first compound 0.03162 µM); 0.515 with Tipifarnib + Crizotinib (first compound 0.1 µM). In addition, the relative viability was determined as 0.367 in the assay with Tipifarnib + Crizotinib (first compound 0.3162 µM) and 0.521 with Tipifarnib + Crizotinib (first compound 1 µM).
Regarding NCI-H1650, the relative viability in the assay with Tipifarnib + Tozasertib (first compound 0.01 µM) came out at 0.267; with Tipifarnib + Tozasertib (first compound 0.03162 µM), 0.283; in the assay with Tipifarnib + Tozasertib (first compound 0.1 µM), 0.241; with Tipifarnib + Tozasertib (first compound 0.3162 µM), 0.205; with Tipifarnib + Tozasertib (first compound 1 µM), 0.326; with Tipifarnib + OSI-027 (first compound 0.01 µM), 0.407. Moreover, the relative viability is 0.17 with Tipifarnib + OSI-027 (first compound 0.03162 µM); 0.305 with Tipifarnib + OSI-027 (first compound 0.1 µM); 0.26 in the assay with Tipifarnib + OSI-027 (first compound 0.3162 µM); 0.196 with Tipifarnib + OSI-027 (first compound 1 µM); 0.47 with Tipifarnib + Crizotinib (first compound 0.01 µM); 0.454 with Tipifarnib + Crizotinib (first compound 0.03162 µM). Besides, the results for the relative viability with Tipifarnib + Crizotinib (first compound 0.1 µM), with Tipifarnib + Crizotinib (first compound 0.3162 µM) and with Tipifarnib + Crizotinib (first compound 1 µM) were 0.401, 0.324 and 0.337, respectively.
For NCI-H2170, the relative viability turned out to be 0.839 in the assay with Tipifarnib + Tozasertib (first compound 0.01 µM); 0.718 with Tipifarnib + Tozasertib (first compound 0.03162 µM); 0.456 with Tipifarnib + Tozasertib (first compound 0.1 µM); 0.501 with Tipifarnib + Tozasertib (first compound 0.3162 µM); 0.47 with Tipifarnib + Tozasertib (first compound 1 µM); 0.668 with Tipifarnib + OSI-027 (first compound 0.01 µM). Further, the relative viability was 0.678 in the assay with Tipifarnib + OSI-027 (first compound 0.03162 µM); 0.583 with Tipifarnib + OSI-027 (first compound 0.1 µM); 0.55 with Tipifarnib + OSI-027 (first compound 0.3162 µM); 0.353 in the assay with Tipifarnib + OSI-027 (first compound 1 µM); 1.33 in the assay with Tipifarnib + Crizotinib (first compound 0.01 µM); 1.04 with Tipifarnib + Crizotinib (first compound 0.03162 µM). Besides, the relative viability with Tipifarnib + Crizotinib (first compound 0.1 µM) is 1.1; with Tipifarnib + Crizotinib (first compound 0.3162 µM), 0.857; with Tipifarnib + Crizotinib (first compound 1 µM) it was 0.644.
For NCI-H1563, the relative viability with Tipifarnib + OSI-027 (first compound 0.01 µM) worked out at 0.725; with Tipifarnib + OSI-027 (first compound 0.03162 µM), 0.777; with Tipifarnib + OSI-027 (first compound 0.1 µM) it was 0.721; with Tipifarnib + OSI-027 (first compound 0.3162 µM) it was 0.641; with Tipifarnib + OSI-027 (first compound 1 µM), 0.62; with Tipifarnib + Linsitinib (first compound 0.01 µM) it was 1.13. Moreover, the relative viability with Tipifarnib + Linsitinib (first compound 0.03162 µM) is 1.13; with Tipifarnib + Linsitinib (first compound 0.1 µM) it was 1.13; with Tipifarnib + Linsitinib (first compound 0.3162 µM), 1.03; in the assay with Tipifarnib + Linsitinib (first compound 1 µM), 1.14; with Tipifarnib + Crizotinib (first compound 0.01 µM), 0.841; in the assay with Tipifarnib + Crizotinib (first compound 0.03162 µM), 0.81. The figures for the relative viability in the assay with Tipifarnib + Crizotinib (first compound 0.1 µM), with Tipifarnib + Crizotinib (first compound 0.3162 µM) and in the assay with Tipifarnib + Crizotinib (first compound 1 µM) were 0.853, 0.813 and 0.888, respectively.
For the cell line EBC-1, the relative viability with Tipifarnib + Linsitinib (first compound 0.01 µM) stood at 0.854; with Tipifarnib + Linsitinib (first compound 0.03162 µM), 0.288; with Tipifarnib + Linsitinib (first compound 0.1 µM) it was 0.332; with Tipifarnib + Linsitinib (first compound 0.3162 µM), 0.265; with Tipifarnib + Linsitinib (first compound 1 µM) it was 0.212; with Tipifarnib + Crizotinib (first compound 0.01 µM), 0.195. Further, the relative viability with Tipifarnib + Crizotinib (first compound 0.03162 µM) stood at 0.198; with Tipifarnib + Crizotinib (first compound 0.1 µM), 0.215; with Tipifarnib + Crizotinib (first compound 0.3162 µM), 0.206; with Tipifarnib + Crizotinib (first compound 1 µM) it was 0.172.
As for Calu-6, the relative viability in the assay with Tipifarnib + Linsitinib (first compound 0.01 µM) is 0.941; in the assay with Tipifarnib + Linsitinib (first compound 0.03162 µM) it was 0.679; with Tipifarnib + Linsitinib (first compound 0.1 µM), 0.645; with Tipifarnib + Linsitinib (first compound 0.3162 µM), 0.515; with Tipifarnib + Linsitinib (first compound 1 µM), 0.444; in the assay with Tipifarnib + Crizotinib (first compound 0.01 µM), 0.694. Further, the relative viability came to 0.566 with Tipifarnib + Crizotinib (first compound 0.03162 µM), 0.452 with Tipifarnib + Crizotinib (first compound 0.1 µM), 0.434 with Tipifarnib + Crizotinib (first compound 0.3162 µM) and 0.344 in the assay with Tipifarnib + Crizotinib (first compound 1 µM).
